The supplement of paper PMC10307832

What was measured:
Assay in all cases: relative viability (nuclei count vs DMSO), 5 days (fraction); higher = more cells survive
LC-2-ad = tested on: LC-2-ad
Method in brief: (§1)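 Cells from lung cancer lines were seeded into 1536-well plates and, one day later, dosed by pin tool. Treatments were either a single drug or a fixed dose of an anchor drug with five library-drug doses (not always all listed) in √10 steps. After 5 days, nuclei were stained in a one-step fixation (final 0.05% Triton X-100, 1% formaldehyde, 1 ug/ml Hoechst) and counted on 4× images, and relative viability is the treated-to-vehicle nuclei ratio, as the median of duplicate plates.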

NCI-H522 = tested on: NCI-H522
Method in brief: as §1

NCI-H358 = tested on: NCI-H358
Method in brief: as §1

RERF-LC-KJ = tested on: RERF-LC-KJ
Method in brief: as §1

NCI-H647 = tested on: NCI-H647
Method in brief: as §1

NCI-H1915 = tested on: NCI-H1915
Method in brief: as §1

HCC-15 = tested on: HCC-15
Method in brief: as §1

NCI-H1755 = tested on: NCI-H1755
Method in brief: as §1

HCC-78 = tested on: HCC-78
Method in brief: as §1

NCI-H460 = tested on: NCI-H460
Method in brief: as §1

NCI-H1975 = tested on: NCI-H1975
Method in brief: as §1

A-427 = tested on: A-427
Method in brief: as §1

PC-3 [JPC-3] = tested on: PC-3 [JPC-3]
Method in brief: as §1

NCI-H2342 = tested on: NCI-H2342
Method in brief: as §1

LOU-NH91 = tested on: LOU-NH91
Method in brief: as §1

NCI-H1734 = tested on: NCI-H1734
Method in brief: as §1

LXF-289 = tested on: LXF-289
Method in brief: as §1

NCI-H1792 = tested on: NCI-H1792
Method in brief: as §1

HOP-62 = tested on: HOP-62
Method in brief: as §1

NCI-H2347 = tested on: NCI-H2347
Method in brief: as §1

NCI-H2126 = tested on: NCI-H2126
Method in brief: as §1

## C[C@@H]1CN(CC(=O)Nc2ccc3c(c2)Cc2cccc(-c4cc(=O)cc(N5CCOCC5)o4)c2S3)C[C@H](C)O1 + NC(=O)Nc1cc(-c2cccc(F)c2)sc1C(=O)N[C@H]1CCCNC1 [AZD7762] (partner 0.2 µM)
LC-2-ad; first compound 0.04 µM
  relative viability: 0.838
LC-2-ad; first compound 0.1265 µM
  relative viability: 0.758
LC-2-ad; first compound 0.4 µM
  relative viability: 0.86
LC-2-ad; first compound 4 µM
  relative viability: 0.807
NCI-H522; first compound 0.04 µM
  relative viability: 0.526
NCI-H522; first compound 0.1265 µM
  relative viability: 0.743
NCI-H522; first compound 0.4 µM
  relative viability: 0.908
NCI-H522; first compound 4 µM
  relative viability: 0.814
NCI-H358; first compound 0.04 µM
  relative viability: 0.463
NCI-H358; first compound 0.1265 µM
  relative viability: 0.416
NCI-H358; first compound 0.4 µM
  relative viability: 0.539
NCI-H358; first compound 4 µM
  relative viability: 0.365
RERF-LC-KJ; first compound 0.04 µM
  relative viability: 0.941
RERF-LC-KJ; first compound 0.1265 µM
  relative viability: 0.955
RERF-LC-KJ; first compound 4 µM
  relative viability: 0.929
NCI-H647; first compound 0.04 µM
  relative viability: 0.346
NCI-H647; first compound 0.1265 µM
  relative viability: 0.46
NCI-H647; first compound 0.4 µM
  relative viability: 0.515
NCI-H647; first compound 4 µM
  relative viability: 0.309
NCI-H1915; first compound 0.04 µM
  relative viability: 0.575
NCI-H1915; first compound 0.1265 µM
  relative viability: 0.727
NCI-H1915; first compound 0.4 µM
  relative viability: 0.735
NCI-H1915; first compound 4 µM
  relative viability: 0.515
HCC-15; first compound 0.04 µM
  relative viability: 1.18
HCC-15; first compound 0.1265 µM
  relative viability: 1.06
HCC-15; first compound 0.4 µM
  relative viability: 1.37
HCC-15; first compound 4 µM
  relative viability: 1.05
NCI-H1755; first compound 0.04 µM
  relative viability: 0.422
NCI-H1755; first compound 0.1265 µM
  relative viability: 0.44
NCI-H1755; first compound 0.4 µM
  relative viability: 0.494
NCI-H1755; first compound 4 µM
  relative viability: 0.445
HCC-78; first compound 0.04 µM
  relative viability: 0.502
HCC-78; first compound 0.1265 µM
  relative viability: 0.642
HCC-78; first compound 0.4 µM
  relative viability: 0.479
HCC-78; first compound 4 µM
  relative viability: 0.66
NCI-H460; first compound 0.04 µM
  relative viability: 0.617
NCI-H460; first compound 0.1265 µM
  relative viability: 0.638
NCI-H460; first compound 0.4 µM
  relative viability: 0.63
NCI-H460; first compound 4 µM
  relative viability: 0.368
NCI-H1975; first compound 0.04 µM
  relative viability: 0.729
NCI-H1975; first compound 0.1265 µM
  relative viability: 0.608
NCI-H1975; first compound 0.4 µM
  relative viability: 0.624
NCI-H1975; first compound 4 µM
  relative viability: 0.585
A-427; first compound 0.04 µM
  relative viability: 0.855
A-427; first compound 0.1265 µM
  relative viability: 0.831
A-427; first compound 0.4 µM
  relative viability: 0.73
A-427; first compound 4 µM
  relative viability: 0.635
PC-3 [JPC-3]; first compound 0.04 µM
  relative viability: 0.777
PC-3 [JPC-3]; first compound 0.1265 µM
  relative viability: 0.739
PC-3 [JPC-3]; first compound 0.4 µM
  relative viability: 0.796
PC-3 [JPC-3]; first compound 4 µM
  relative viability: 0.669
NCI-H2342; first compound 0.04 µM
  relative viability: 0.499
NCI-H2342; first compound 0.1265 µM
  relative viability: 0.495
NCI-H2342; first compound 0.4 µM
  relative viability: 0.492
NCI-H2342; first compound 4 µM
  relative viability: 0.441
LOU-NH91; first compound 0.04 µM
  relative viability: 0.639
LOU-NH91; first compound 0.1265 µM
  relative viability: 0.775
LOU-NH91; first compound 0.4 µM
  relative viability: 0.65
LOU-NH91; first compound 4 µM
  relative viability: 0.706
NCI-H1734; first compound 0.04 µM
  relative viability: 0.569
NCI-H1734; first compound 0.1265 µM
  relative viability: 0.684
NCI-H1734; first compound 0.4 µM
  relative viability: 0.643
NCI-H1734; first compound 4 µM
  relative viability: 0.634
LXF-289; first compound 0.04 µM
  relative viability: 1.05
LXF-289; first compound 0.1265 µM
  relative viability: 1.12
LXF-289; first compound 0.4 µM
  relative viability: 1.19
LXF-289; first compound 4 µM
  relative viability: 1.04
NCI-H1792; first compound 0.04 µM
  relative viability: 0.662
NCI-H1792; first compound 0.1265 µM
  relative viability: 0.638
NCI-H1792; first compound 0.4 µM
  relative viability: 0.564
NCI-H1792; first compound 4 µM
  relative viability: 0.314
HOP-62; first compound 0.04 µM
  relative viability: 0.445
HOP-62; first compound 0.1265 µM
  relative viability: 0.599
HOP-62; first compound 0.4 µM
  relative viability: 0.739
HOP-62; first compound 4 µM
  relative viability: 0.624
NCI-H2347; first compound 0.04 µM
  relative viability: 0.811
NCI-H2347; first compound 0.1265 µM
  relative viability: 0.913
NCI-H2347; first compound 0.4 µM
  relative viability: 0.625
NCI-H2347; first compound 4 µM
  relative viability: 0.611
NCI-H2126; first compound 0.04 µM
  relative viability: 0.91
NCI-H2126; first compound 0.1265 µM
  relative viability: 1.02
NCI-H2126; first compound 0.4 µM
  relative viability: 0.964
NCI-H2126; first compound 4 µM
  relative viability: 1.02
